Assays:
[1] = target: T1, PIP4K2A (full length protein, SignalChem) (Homo sapiens, UniProt P48426); experiment: Kinase Assay PIP4K2 A (Sprint); ADP-Glo biochemical assay; conditions: Table 2; compounds listed under IC50 range headings
T1 construct: 4 nM PIP4K2A (full length protein, SignalChem); purchased SignalChem
T1 sequence (P48426 1-406): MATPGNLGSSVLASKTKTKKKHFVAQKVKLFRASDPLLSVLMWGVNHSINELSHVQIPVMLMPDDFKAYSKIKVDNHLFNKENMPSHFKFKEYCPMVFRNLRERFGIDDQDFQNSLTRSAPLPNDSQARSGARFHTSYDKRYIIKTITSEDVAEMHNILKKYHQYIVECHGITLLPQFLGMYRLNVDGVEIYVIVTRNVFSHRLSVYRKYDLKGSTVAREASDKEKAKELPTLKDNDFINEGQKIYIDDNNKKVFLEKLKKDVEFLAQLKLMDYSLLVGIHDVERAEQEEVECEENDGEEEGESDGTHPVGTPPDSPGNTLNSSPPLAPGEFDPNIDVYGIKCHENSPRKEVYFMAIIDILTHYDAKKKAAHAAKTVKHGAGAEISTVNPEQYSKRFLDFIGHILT
Method in brief: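 ADP-Glo luminescence detected ADP after a 1 h RT reaction started with 60 μM ATP solution. Before that, full-length PIP4K2A (4 nM in mix) with 100 μM PI(5)P diC8 was pre-incubated 15 min with compounds in MOPS buffer pH 7.2, 25 mM MgCl2, 0.005% Tween 20. IC50 derived from % inhibition relative to DMSO over 10 three-fold concentrations.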

[2] = target: T2, GST tagged PIP4KtypeIIA (Homo sapiens, UniProt P48426); experiment: ADP-glo kinase assay PIP4K 2A (PIP4KtypeIIA inhibition assay); format: biochemical; conditions: Table 3; compounds listed under IC50 range headings; 10 uM ATP, 0.5 nM PIP4KIIA
T2 construct: made in house; host or cells: E. coli
T2 sequence (P48426 1-406): T1 sequence (P48426 1-406)
Method in brief: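 Read-out was ADP-Glo luminescence converted to μM ADP, with IC50 plotted as % of no-inhibitor activity against log concentration. Reactions contained 10 μM ATP, 80 μM PI5P with DOPE carrier, and 0.5 nM GST-tagged PIP4KIIA (E. coli-expressed) in pH 7.3 HEPES/MgCl2 buffer with 5% DMSO. Enzyme and compound (≤4.8 μM) were preincubated 1 h at 27 °C before the 1 h reaction.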

[3] = target: T3, GST tagged PIP4KtypeIIB (Homo sapiens, UniProt P78356); experiment: Trans-FI P kinase assay PIP4K2B (PIP4KtypeIIB inhibition assay); format: biochemical; conditions: Table 4; compounds listed under IC50 range headings; 100 uM GTP, 5 nM PIP4KIIB; read-out: Trans-FI P kinase assays: PIP4K2B IC50
T3 construct: made in house; host or cells: E. coli
T3 sequence (P78356 1-416): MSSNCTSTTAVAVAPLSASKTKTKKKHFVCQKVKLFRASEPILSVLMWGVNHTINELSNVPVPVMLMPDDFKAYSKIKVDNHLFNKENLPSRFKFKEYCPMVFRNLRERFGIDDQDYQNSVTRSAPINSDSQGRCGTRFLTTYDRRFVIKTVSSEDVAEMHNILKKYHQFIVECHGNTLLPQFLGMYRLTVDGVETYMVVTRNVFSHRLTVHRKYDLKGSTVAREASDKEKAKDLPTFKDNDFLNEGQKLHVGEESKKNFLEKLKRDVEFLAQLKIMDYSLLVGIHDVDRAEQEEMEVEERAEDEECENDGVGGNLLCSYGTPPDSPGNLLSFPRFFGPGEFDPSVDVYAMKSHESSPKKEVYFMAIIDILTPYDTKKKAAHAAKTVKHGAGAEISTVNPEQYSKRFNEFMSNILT
Method in brief: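 Transcreener FI fluorescence, converted to GDP by calibration, tracked product from 5 nM E. coli-expressed GST-PIP4KIIB acting on 80 uM PI5P (DOPE carrier) with 100 uM GTP. Compound (top 4.8 uM final, 5% DMSO) was preincubated 1 h at 27 C before the 2 h reaction; IC50 fitted from residual activity.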

Compound | IC50 [1] | IC50 [2] | IC50 [3]
CN(C)C(=O)c1ccc(-c2cc(-c3cc(Nc4cccc(NC(=O)c5cccc(N)c5)c4)ncn3)cnc2N)nc1 [Example 219, 2′-amino-5′-(6-((3-(3-aminobenzamido)phenyl)amino)pyrimidin-4-yl)-N,N-dimethyl-[2,3′-bipyridine]-5-carboxamide] | 100 to 1000 nM | 1000 to 2500 nM | 100 to 1000 nM
CN(C)C(=O)c1cnc2c(c1)c(-c1cncc(-c3ccc(N4CCCC4=O)cc3)c1)nn2C [Example 231, N,N,1-trimethyl-3-(5-(4-(2-oxopyrrolidin-1-yl)phenyl)pyridin-3-yl)-1H-pyrazolo[3,4-b]pyridine-5-carboxamide] | 100 to 1000 nM | 100 to 1000 nM | 1000 to 2500 nM
CN(C)C(=O)c1ccc(-c2cc(-c3ccnc4[nH]ccc34)cnc2N)nc1 [Example 21, 2′-amino-N,N-dimethyl-5′-(1H-pyrrolo[2,3-b]pyridin-4-yl)-[2,3′-bipyridine]-5-carboxamide] | 100 to 1000 nM | 100 to 1000 nM | 100 to 1000 nM
N#Cc1[nH]c2ncccc2c1-c1cncc(-c2ccc(N3CCCC3=O)cc2)c1 [Example 51, 3-(5-(4-(2-oxopyrrolidin-1-yl)phenyl)pyridin-3-yl)-1H-pyrrolo[2,3-b]pyridine-2-carbonitrile] | 5 to 100 nM | 100 to 1000 nM | 10 to 100 nM
CN(C)C(=O)c1ccc(-c2cc(-c3cccnc3N)cnc2N)nc1 [Example 120, 2′,2″-diamino-N,N-dimethyl-[2,3′:5′,3″-terpyridine]-5-carboxamide] | < 5000 nM | > 5000 nM | > 5000 nM
CN(C)C(=O)c1ccc(-c2cc(-c3ccnc4[nH]c(C(=O)N5CC(C(N)=O)C5)cc34)cnc2N)nc1 [Example 130, 2′-amino-5′-(2-(3-carbamoylazetidine-1-carbonyl)-1H-pyrrolo[2,3-b]pyridin-4-yl)-N,N-dimethyl-[2,3′-bipyridine]-5-carboxamide] | 100 to 1000 nM | 100 to 1000 nM | 100 to 1000 nM
COC(=O)c1cc2c(-c3cncc(-c4ccc(N5CCCC5=O)cc4)c3C)ccnc2[nH]1 [Example 175, methyl 4-(4-methyl-5-(4-(2-oxopyrrolidin-1-yl)phenyl)pyridin-3-yl)-1H-pyrrolo[2,3-b]pyridine-2-carboxylate] | 5 to 100 nM | 10 to 100 nM | 10 to 100 nM
CN(C)C(=O)c1cc2c(-c3cncc(-c4ccc(N5CCCC5=O)cc4)c3)ccnc2[nH]1 [Example 241, N,N-dimethyl-4-(5-(4-(2-oxopyrrolidin-1-yl)phenyl)pyridin-3-yl)-1H-pyrrolo[2,3-b]pyridine-2-carboxamide] | 5 to 100 nM | 10 to 100 nM | 10 to 100 nM
O=C1Cc2c(-c3cncc(-c4ccc(N5CCCC5=O)cc4)c3)ccnc2N1 [Example 42, 4-(5-(4-(2-oxopyrrolidin-1-yl)phenyl)pyridin-3-yl)-1,3-dihydro-2H-pyrrolo[2,3-b]pyridin-2-one] | 100 to 1000 nM | 2500 to 5000 nM | 1000 to 2500 nM
CN(C)C(=O)c1ccc(-c2cc(-c3ccnc(CNC(=O)c4cccc(NC(=O)OC(C)(C)C)c4)c3)cnc2N)nc1 [Example 190, tert-butyl (3-(((2′-amino-5-(dimethylcarbamoyl)-[2,3′:5′,4″-terpyridin]-2″-yl)methyl)carbamoyl)phenyl)carbamate] | 2500 to 5000 nM | > 5000 nM | > 5000 nM
Cc1[nH]c2ncc(C(=O)N(C)C)cc2c1-c1cncc(-c2ccc(N3CCCC3=O)cc2)c1 [Example 250, N,N,2-trimethyl-3-(5-(4-(2-oxopyrrolidin-1-yl)phenyl)pyridin-3-yl)-1H-pyrrolo[2,3-b]pyridine-5-carboxamide] | 5 to 100 nM | 100 to 1000 nM | 100 to 1000 nM
O=C1NCCn2c1cc1c(-c3cncc(-c4ccc(N5CCCC5=O)cc4)c3)ccnc12 [Example 45, 4-(5-(4-(2-oxopyrrolidin-1-yl)phenyl)pyridin-3-yl)-8,9-dihydropyrido[3′,2′:4,5]pyrrolo[1,2-a]pyrazin-6(7H)-one] | 5 to 100 nM | 100 to 1000 nM | 10 to 100 nM
O=C(NC1COC1)c1cc2c(-c3cncc(-c4ccc(N5CCCC5=O)cc4)c3)ccnc2o1 [Example 166, N-(oxetan-3-yl)-4-(5-(4-(2-oxopyrrolidin-1-yl)phenyl)pyridin-3-yl)furo[2,3-b]pyridine-2-carboxamide] | 5 to 100 nM | 10 to 100 nM | 100 to 1000 nM
COc1ncc(-c2cncc(-c3ccc(N4CCCC4=O)cc3)c2)c2c[nH]nc12 [Example 270, 1-(4-(5-(7-methoxy-2H-pyrazolo[3,4-c]pyridin-4-yl)pyridin-3-yl)phenyl)pyrrolidin-2-one] | 5 to 100 nM | 100 to 1000 nM | 100 to 1000 nM

More lines, now with the values ahead:

IC50 [1] | IC50 [2] | IC50 [3] | Compound
5 to 100 nM | 10 to 100 nM | 10 to 100 nM | Cn1ncc2c(-c3cnc(N)c(-c4ccc(N5CCCC5=O)cc4)c3)cn(CC3CCOCC3)c(=O)c21 [Example 92, 4-(6-amino-5-(4-(2-oxopyrrolidin-1-yl)phenyl)pyridin-3-yl)-1-methyl-6-((tetrahydro-2H-pyran-4-yl)methyl)-1,6-dihydro-7H-pyrazolo[3,4-c]pyridin-7-one]
5 to 100 nM | 100 to 1000 nM | 100 to 1000 nM | Nc1ncc(-c2csc3ncccc23)cc1-c1ccc(N2CCCC2=O)cn1 [Example 23, 1-(2′-amino-5′-(thieno[2,3-b]pyridin-3-yl)-[2,3′-bipyridin]-5-yl)pyrrolidin-2-one]
100 to 1000 nM | 100 to 1000 nM | 100 to 1000 nM | CN1CCn2c(cc3c(-c4cncc(-c5ccc(N6CCCCC6=O)cc5)c4)ccnc32)C1=O [Example 346, 7-methyl-4-(5-(4-(2-oxopiperidin-1-yl)phenyl)pyridin-3-yl)-8,9-dihydropyrido[3′,2′:4,5]pyrrolo[1,2-a]pyrazin-6(7H)-one]
100 to 1000 nM | 1000 to 2500 nM | 2500 to 5000 nM | Cn1cc(-c2cncc(-c3ccc(N4CCCC4=O)cc3)c2)c2cc(N3CCNCC3)cnc21 [Example 56, 1-(4-(5-(1-methyl-5-(piperazin-1-yl)-1H-pyrrolo[2,3-b]pyridin-3-yl)pyridin-3-yl)phenyl)pyrrolidin-2-one]
5 to 100 nM | 100 to 1000 nM | 100 to 1000 nM | Cn1cc(-c2cncc(-c3ccc(N4CCCC4=O)cc3)c2)c2cccnc21 [Example 39, 1-(4-(5-(1-methyl-1H-pyrrolo[2,3-b]pyridin-3-yl)pyridin-3-yl)phenyl)pyrrolidin-2-one]
5 to 100 nM | 100 to 1000 nM | 100 to 1000 nM | Cn1ncc2c(-c3cncc(-c4ccc(N5CCCC5=O)cc4)c3)c[nH]c(=O)c21 [Example 158, 1-methyl-4-(5-(4-(2-oxopyrrolidin-1-yl)phenyl)pyridin-3-yl)-1,6-dihydro-7H-pyrazolo[3,4-c]pyridin-7-one]
5 to 100 nM | 100 to 1000 nM | 100 to 1000 nM | Cn1ncc2c(-c3cncc(-c4ccc(N5CCCC5=O)cc4)c3)ccnc21 [Example 218, 1-(4-(5-(1-methyl-1H-pyrazolo[3,4-b]pyridin-4-yl)pyridin-3-yl)phenyl)pyrrolidin-2-one]
5 to 100 nM | 1000 to 2500 nM | 100 to 1000 nM | O=C1CCCN1c1ccc(-c2cncc(-c3cn(CC4CCOCC4)c(=O)c4[nH]ncc34)c2)cc1 [Example 69, 4-(5-(4-(2-oxopyrrolidin-1-yl)phenyl)pyridin-3-yl)-6-((tetrahydro-2H-pyran-4-yl)methyl)-1,6-dihydro-7H-pyrazolo[3,4-c]pyridin-7-one]

Reference: US11919902B2, “Aryl-bipyridine amine derivatives as phosphatidylinositol phosphate kinase inhibitors” (HiberCell, Inc., priority 2017, dated 2024)
